Experimental data from patent publication US11066425B1, “Oxo-substituted compound” (SUMITOMO DAINIPPON PHARMA CO., LTD., priority 2018, dated 2021).
Where a name gives a salt, the structure may show the parent alone.

System: β-lactamase producing bacteria
Assay: Test Example 1: MIC of meropenem (MEPM) combined with test compound at fixed 4 μg/mL, broth microdilution
Type: cell-based
Details: relative to MEPM alone
Method: Test Example 1: Evaluation of Minimum Inhibitory Concentration (MIC) of MEPM Against β-Lactamase Producing Bacteria
To evaluate the β-lactamase inhibitory activity of test compounds, the effect of combination of a test compound and a β-lactam agent against β-lactamase producing bacteria was evaluated. Meropenem (MEPM) was used as a β-lactam antimicrobial agent. The minimum inhibitory concentration (MIC) of MEPM against β-lactamase producing bacteria when a test compound was added at a fixed concentration (4 μg/mL) was measured by broth microdilution method (common ratio: 2). MIC of MEPM decreasing to less than 1/32 in combination with a test compound is indicated by A, decreasing from 1/32 to 1/16 is indicated by B, decreasing from ⅛ to ¼ is indicated by C, and decreasing to ½ or others are indicated by D. “-” represents untested cases.

SMILES | Decrease of MIC of MEPM in combination with a test compound, E. coli ATCC BAA-2340 (KPC) | Decrease of MIC of MEPM in combination with a test compound, K. pneumoniae ATCC BAA-2344 (KPC) | Decrease of MIC of MEPM in combination with a test compound, K. pneumoniae ATCC BAA-2524 (OXA-48)
CC(=O)N1CC(Oc2ccc3c(c2C(=O)O)OB(O)CC3)C1 [Example 1, 7-[(1-acetylazetidin-3-yl)oxy]-2-hydroxy-3,4-dihydro-2H-1,2-benzoxaborinine-8-carboxylic Acid] | A (MIC of MEPM decreasing to less than 1/32 in combination with a test compound is indicated by A) | A (MIC of MEPM decreasing to less than 1/32 in combination with a test compound is indicated by A) | B (decreasing from 1/32 to 1/16 is indicated by B)
O=C(O)c1c(OC2CN(C(=O)Cc3cnc[nH]3)C2)ccc2c1OB(O)CC2 [Example 2, 2-hydroxy-7-({1-[(1H-imidazol-5-yl)acetyl]azetidin-3-yl}oxy)-3,4-dihydro-2H-1,2-benzoxaborinine-8-carboxylic Acid Hydrochloride] | A (MIC of MEPM decreasing to less than 1/32 in combination with a test compound is indicated by A) | A (MIC of MEPM decreasing to less than 1/32 in combination with a test compound is indicated by A) | B (decreasing from 1/32 to 1/16 is indicated by B)
CS(=O)(=O)N1CC(Oc2ccc3c(c2C(=O)O)OB(O)CC3)C1 [Example 3, 2-hydroxy-7-{[1-(methanesulfonyl)azetidin-3-yl]oxy}-3,4-dihydro-2H-1,2-benzoxaborinine-8-carboxylic] | A (MIC of MEPM decreasing to less than 1/32 in combination with a test compound is indicated by A) | A (MIC of MEPM decreasing to less than 1/32 in combination with a test compound is indicated by A) | B (decreasing from 1/32 to 1/16 is indicated by B)
N[C@@H](C(=O)N1CC(Oc2ccc3c(c2C(=O)O)O[B-](O)(O)CC3)C1)c1ccc(O)cc1 [Example 4, 8-({1-[(2R)-2-amino-2-(4-hydroxyphenyl)acetyl]azetidin-3-yl}oxy)-4,4-dihydroxy-5-oxa-4-boranuidabicyclo[4.4.0]deca-l(6),7,9-triene-7-carboxylic Acid Disodium Salt] | A (MIC of MEPM decreasing to less than 1/32 in combination with a test compound is indicated by A) | A (MIC of MEPM decreasing to less than 1/32 in combination with a test compound is indicated by A) | A (MIC of MEPM decreasing to less than 1/32 in combination with a test compound is indicated by A)
CON=C(C(=O)N1CC(Oc2ccc3c(c2C(=O)O)OB(O)CC3)C1)c1csc(N)n1 [Example 5, 7-({1-[(2-amino-1,3-thiazol-4-yl)(methoxyimino)acetyl]azetidin-3-yl}oxy)-2-hydroxy-3,4-dihydro-2H-1,2-benzoxaborinine-8-carboxylic acid] | A (MIC of MEPM decreasing to less than 1/32 in combination with a test compound is indicated by A) | B (decreasing from 1/32 to 1/16 is indicated by B) | C (decreasing from ⅛ to ¼ is indicated by C)
Cl.O=C(O)c1c(OC2CN(C(=O)c3ccccn3)C2)ccc2c1OB(O)CC2 [Example 6, 2-hydroxy-7-{[1-(pyridine-2-carbonyl)azetidin-3-yl]oxy}-3,4-dihydro-2H-1,2-benzoxaborinine-8-carboxylic acid hydrochloride] | A (MIC of MEPM decreasing to less than 1/32 in combination with a test compound is indicated by A) | A (MIC of MEPM decreasing to less than 1/32 in combination with a test compound is indicated by A) | B (decreasing from 1/32 to 1/16 is indicated by B)
CSCC(=O)N1CC(Oc2ccc3c(c2C(=O)O)O[B-](O)(O)CC3)C1 [Example 7, 4,4-dihydroxy-8-({1-[(methylsulfanyl)acetyl]azetidin-3-yl}oxy)-5-oxa-4-boranuidabicyclo[4.4.0]deca-l(6),7,9-triene-7-carboxylic acid disodium salt] | A (MIC of MEPM decreasing to less than 1/32 in combination with a test compound is indicated by A) | A (MIC of MEPM decreasing to less than 1/32 in combination with a test compound is indicated by A) | B (decreasing from 1/32 to 1/16 is indicated by B)
O=C(O)c1c(OC2CN(C(=O)c3nc[nH]n3)C2)ccc2c1O[B-](O)(O)CC2 [Example 8, 4,4-dihydroxy-8-{[1-(1H-1,2,4-triazole-3-carbonyl)azetidin-3-yl]oxy}-5-oxa-4-boranuidabicyclo[4.4.0]deca-l(6),7,9-triene-7-carboxylic acid disodium salt] | A (MIC of MEPM decreasing to less than 1/32 in combination with a test compound is indicated by A) | A (MIC of MEPM decreasing to less than 1/32 in combination with a test compound is indicated by A) | B (decreasing from 1/32 to 1/16 is indicated by B)
O=C(O)c1c(OC2CN(C(=O)c3cccc[n+]3[O-])C2)ccc2c1O[B-](O)(O)CC2 [Example 9, 4,4-dihydroxy-8-{[1-(1-oxido-2-pyridinylcarbonyl)azetidin-3-yl]oxy}-5-oxa-4-boranuidabicyclo[4.4.0]deca-l(6),7,9-triene-7-carboxylic acid disodium salt] | A (MIC of MEPM decreasing to less than 1/32 in combination with a test compound is indicated by A) | A (MIC of MEPM decreasing to less than 1/32 in combination with a test compound is indicated by A) | A (MIC of MEPM decreasing to less than 1/32 in combination with a test compound is indicated by A)
N[C@@H](C(=O)N1CC(Oc2ccc3c(c2C(=O)O)O[B-](O)(O)CC3)C1)c1ccccc1 [Example 10, 8-({1-[(2R)-2-amino-2-phenylacetyl]azetidin-3-yl}oxy)-4,4-dihydroxy-5-oxa-4-boranuidabicyclo[4.4.0]deca-l(6),7,9-triene-7-carboxylic acid disodium salt] | A (MIC of MEPM decreasing to less than 1/32 in combination with a test compound is indicated by A) | A (MIC of MEPM decreasing to less than 1/32 in combination with a test compound is indicated by A) | B (decreasing from 1/32 to 1/16 is indicated by B)
